From publication PMC9736374, “Design, Synthesis and Antimicrobial Properties of New Tetracyclic Quinobenzothiazine Derivatives” (International Journal of Molecular Sciences, 2022)

test system: methicillin-resistant S. aureus 63718 (MRSA3); assay: MBC, agar aliquot subculture method; type: cell-based; details: Staphylococcus aureus; MRSA3 = 63718

Structure (SMILES)	MBC
CCCOc1cccc2c1Nc1c(c[n+](C)c3ccccc13)S2 [Compound 6c, 11-propoxy-5-methyl-12H-quino[3,4-b][1,4]benzothiazinium chloride]	178 µM

test system: vancomycin-resistant E. faecalis VRE 725B (VRE3); assay: MIC, microtitration broth method; type: cell-based, Enterococcus faecalis; details: VRE3 = VRE 725B; 24 h, 37 °C

MIC	Structure (SMILES)
89.1 µM	CCCOc1cccc2c1Nc1c(c[n+](C)c3ccccc13)S2 [Compound 6c, 11-propoxy-5-methyl-12H-quino[3,4-b][1,4]benzothiazinium chloride]

test system: Staphylococcus aureus ATCC 29213; assay: MIC, microtitration broth method; type: cell-based; details: ATCC29213; SA = Staphylococcus aureus ATCC 29213; 24 h, 37 °C

MIC	Structure (SMILES)
178 µM	CCCOc1cccc2c1Nc1c(c[n+](C)c3ccccc13)S2 [Compound 6c, 11-propoxy-5-methyl-12H-quino[3,4-b][1,4]benzothiazinium chloride]

test system: normal human dermal fibroblasts (NHDF); assay: In vitro cell viability, WST-1 assay; type: cell-based; details: 72 h
Procedure: Compounds were evaluated for their antiproliferative activity using NHDF (normal human dermal fibroblasts, ATCC, Manassas, VA, USA). The cultured cells were kept at 37 °C and 5% CO2. The cells were seeded (1 × 10^4 cells/well/100 μL DMEM supplemented with 10% FCS and streptomycin/penicillin) into 96-well plates (Corning Inc., Corning, NY, USA). Cells were counted using a hemocytometer (Burker chamber) and phase contrast Olympus IX50 microscope equipped with Sony SSC-DC58 AP camera and Olympus DP10 digital camera. The cell viability of the compounds was determined using the Cell Proliferation Reagent WST-1 assay (Roche Molecular Biochemicals, Mannheim, Germany). The examined cells were exposed to the tested compounds (1 mg/mL DMSO stock) for 72 h at various concentrations (0.1–100 μg/mL). The control was included in order to eliminate the DMSO effect at the concentration used. Cell cultures were incubated with WST-1 (10 μL) for 1 h. The absorbance of the samples was measured against a background control at 450 nm using a microplate reader with a reference wavelength at 600 nm. The obtained results are expressed as means of at least two independent experiments performed in triplicate.

Structure (SMILES)	IC50
CCCOc1cccc2c1Nc1c(c[n+](C)c3ccccc13)S2 [Compound 6c, 11-propoxy-5-methyl-12H-quino[3,4-b][1,4]benzothiazinium chloride]	> 100 µM

test system: Mycobacterium marinum CAMP 5644; assay: In vitro antimycobacterial MIC, broth dilution micro-method; type: cell-based; details: CAMP5644, 504 h; MM = Mycobacterium marinum CAMP 5644; 21 days, 28 °C

MIC	Structure (SMILES)
44.6 µM	CCCOc1cccc2c1Nc1c(c[n+](C)c3ccccc13)S2 [Compound 6c, 11-propoxy-5-methyl-12H-quino[3,4-b][1,4]benzothiazinium chloride]

test system: methicillin-resistant S. aureus SA 3202 (MRSA1); assay: MIC, microtitration broth method; type: cell-based; details: Staphylococcus aureus; MRSA1 = SA 3202; 24 h, 37 °C

MIC	Structure (SMILES)
178 µM	CCCOc1cccc2c1Nc1c(c[n+](C)c3ccccc13)S2 [Compound 6c, 11-propoxy-5-methyl-12H-quino[3,4-b][1,4]benzothiazinium chloride]

test system: methicillin-resistant S. aureus SA 630 (MRSA2); assay: MBC, agar aliquot subculture method; type: cell-based; details: Staphylococcus aureus; MRSA2 = SA 630

Structure (SMILES)	MBC
CCCOc1cccc2c1Nc1c(c[n+](C)c3ccccc13)S2 [Compound 6c, 11-propoxy-5-methyl-12H-quino[3,4-b][1,4]benzothiazinium chloride]	178 µM

test system: methicillin-resistant S. aureus SA 3202 (MRSA1); assay: MBC, agar aliquot subculture method; type: cell-based; details: Staphylococcus aureus; MRSA1 = SA 3202

Structure (SMILES)	MBC
CCCOc1cccc2c1Nc1c(c[n+](C)c3ccccc13)S2 [Compound 6c, 11-propoxy-5-methyl-12H-quino[3,4-b][1,4]benzothiazinium chloride]	178 µM

test system: vancomycin-resistant E. faecalis VRE 368 (VRE2); assay: MIC, microtitration broth method; type: cell-based, Enterococcus faecalis; details: VRE2 = VRE 368; 24 h, 37 °C

MIC	Structure (SMILES)
178 µM	CCCOc1cccc2c1Nc1c(c[n+](C)c3ccccc13)S2 [Compound 6c, 11-propoxy-5-methyl-12H-quino[3,4-b][1,4]benzothiazinium chloride]

test system: not listed separately; assay: Lipophilicity by RP-TLC; type: physicochemical; details: Tris buffer pH 7.4/acetone, read-out: logPTLC
Procedure: The lipophilicity parameters were determined experimentally using reverse phase thin-layer chromatography (RP-TLC). Chromatograms were prepared on RP-18F254s plates (1.05559.0001, Merck, Germany) precoated with nonpolar silicone oil. Plates were developed in glass chromatography chambers previously saturated with vapor of mobile phase. The mobile phase was composed of 0.2M Tris buffer (pH = 7.4) and acetone in different concentrations, i.e., 50%, 60%, 70%, 80 and 90%. The chromatograms were visualised in UV light (λ = 254 nm). Determination of the RF coefficient was carried out twice for all compounds; in all cases, acetone concentrations used. The final value of RF is the mean of the two measurements. The obtained RF coefficient was used to calculate the value of the RM parameter according to the equation: RM = log [(1/RF) − 1]. By extrapolating RM values to zero acetone concentration, a relative RM0 lipophilicity parameter was obtained, according to the equation: RM = RM0 + bC, where b is slope and C is concentration of acetone in mobile phase. Based on RM0 and the calibration curve, the values of logPTLC for compounds 6a–l were determined. The calibration curve was calculated using the relationship between RM0 of the standard molecules (acetanilide, p-kresol, p-bromoacetophenone, benzophenone, anthracene) and the corresponding logP parameters specified by the extraction method, respectively. RM0 parameters of the standard molecules and quinobenzothiazine derivatives 6a–l were determined in the same empirical conditions.

chromatographic logP	Structure (SMILES)
1.18	CCCOc1cccc2c1Nc1c(c[n+](C)c3ccccc13)S2 [Compound 6c, 11-propoxy-5-methyl-12H-quino[3,4-b][1,4]benzothiazinium chloride]

test system: Enterococcus faecalis ATCC 29212; assay: MBC, agar aliquot subculture method; type: cell-based; details: ATCC29212; EF = Enterococcus faecalis

Structure (SMILES)	MBC
CCCOc1cccc2c1Nc1c(c[n+](C)c3ccccc13)S2 [Compound 6c, 11-propoxy-5-methyl-12H-quino[3,4-b][1,4]benzothiazinium chloride]	178 µM

test system: Enterococcus faecalis ATCC 29212; assay: MIC, microtitration broth method; type: cell-based; details: ATCC29212; EF = Enterococcus faecalis; 24 h, 37 °C

MIC	Structure (SMILES)
178 µM	CCCOc1cccc2c1Nc1c(c[n+](C)c3ccccc13)S2 [Compound 6c, 11-propoxy-5-methyl-12H-quino[3,4-b][1,4]benzothiazinium chloride]

test system: vancomycin-resistant E. faecalis VRE 368 (VRE2); assay: MBC, agar aliquot subculture method; type: cell-based, Enterococcus faecalis; details: VRE2 = VRE 368

Structure (SMILES)	MBC
CCCOc1cccc2c1Nc1c(c[n+](C)c3ccccc13)S2 [Compound 6c, 11-propoxy-5-methyl-12H-quino[3,4-b][1,4]benzothiazinium chloride]	178 µM

test system: methicillin-resistant S. aureus SA 630 (MRSA2); assay: MIC, microtitration broth method; type: cell-based; details: Staphylococcus aureus; MRSA2 = SA 630; 24 h, 37 °C

MIC	Structure (SMILES)
178 µM	CCCOc1cccc2c1Nc1c(c[n+](C)c3ccccc13)S2 [Compound 6c, 11-propoxy-5-methyl-12H-quino[3,4-b][1,4]benzothiazinium chloride]

test system: Staphylococcus aureus ATCC 29213; assay: MBC, agar aliquot subculture method; type: cell-based; details: ATCC29213; SA = Staphylococcus aureus ATCC 29213

Structure (SMILES)	MBC
CCCOc1cccc2c1Nc1c(c[n+](C)c3ccccc13)S2 [Compound 6c, 11-propoxy-5-methyl-12H-quino[3,4-b][1,4]benzothiazinium chloride]	178 µM

test system: vancomycin-resistant E. faecalis VRE 342B (VRE1); assay: MBC, agar aliquot subculture method; type: cell-based, Enterococcus faecalis; details: VRE1 = VRE 342B

Structure (SMILES)	MBC
CCCOc1cccc2c1Nc1c(c[n+](C)c3ccccc13)S2 [Compound 6c, 11-propoxy-5-methyl-12H-quino[3,4-b][1,4]benzothiazinium chloride]	178 µM

test system: vancomycin-resistant E. faecalis VRE 342B (VRE1); assay: MIC, microtitration broth method; type: cell-based, Enterococcus faecalis; details: VRE1 = VRE 342B; 24 h, 37 °C

MIC	Structure (SMILES)
178 µM	CCCOc1cccc2c1Nc1c(c[n+](C)c3ccccc13)S2 [Compound 6c, 11-propoxy-5-methyl-12H-quino[3,4-b][1,4]benzothiazinium chloride]

test system: M. smegmatis ATCC 700084; assay: In vitro antimycobacterial MIC, broth dilution micro-method; type: cell-based, Mycobacterium smegmatis; details: Mycolicibacterium smegmatis, ATCC700084, 72 h; MS = M. smegmatis ATCC 700084; 3 days, 37 °C

MIC	Structure (SMILES)
44.6 µM	CCCOc1cccc2c1Nc1c(c[n+](C)c3ccccc13)S2 [Compound 6c, 11-propoxy-5-methyl-12H-quino[3,4-b][1,4]benzothiazinium chloride]

test system: methicillin-resistant S. aureus 63718 (MRSA3); assay: MIC, microtitration broth method; type: cell-based; details: Staphylococcus aureus; MRSA3 = 63718; 24 h, 37 °C

MIC	Structure (SMILES)
178 µM	CCCOc1cccc2c1Nc1c(c[n+](C)c3ccccc13)S2 [Compound 6c, 11-propoxy-5-methyl-12H-quino[3,4-b][1,4]benzothiazinium chloride]

test system: vancomycin-resistant E. faecalis VRE 725B (VRE3); assay: MBC, agar aliquot subculture method; type: cell-based, Enterococcus faecalis; details: VRE3 = VRE 725B

Structure (SMILES)	MBC
CCCOc1cccc2c1Nc1c(c[n+](C)c3ccccc13)S2 [Compound 6c, 11-propoxy-5-methyl-12H-quino[3,4-b][1,4]benzothiazinium chloride]	178 µM
